Data: US20200399222A1, “PICOLINAMIDES AS FUNGICIDES” (Dow AgroSciences LLC, priority 2018, published 2020)
Read-outs that look alike come from different tables or passages of the source.

Test system: Phakopsora pachyrhizi
Assay: Asian soybean rust (PHAKPA) disease control on soybean seedlings
Assay type: in vivo
Settings: High volume application at 25 ppm; for pest or weed control at 25 ppm: Phakopsora pachyrhizi
Experimental: Example C: Evaluation of Fungicidal Activity: Asian Soybean Rust (Phakopsora pachyrhizi; Bayer Code […]) Technical grades of materials were dissolved in acetone, which were then mixed with nine volumes of water containing 0.011% Tween 20. The fungicide solutions were applied onto soybean seedlings using an automated booth sprayer to run-off. All sprayed plants were allowed to air dry prior to further handling. Soybean plants (variety Williams 82) were grown in soil-less Metro mix, with one plant per pot. Two week old seedlings were used for testing. Plants were inoculated either 3 days prior to or 1 day after fungicide treatments. Plants were incubated for 24 h in a dark dew room at 22° C. and 100% relative humidity then transferred to a growth room at 23° C. for disease to develop. Disease severity was assessed on the sprayed leaves.

[1] = 24 h, 1 day protectant, read-out: PHAKPA 1DP (1 Day Protectant) disease control
[2] = 72 h, 3 day curative, read-out: PHAKPA 3DC (3 Day Curative) disease control

COc1ccnc(C(=O)N[C@H](C(=O)O[C@@H](C)[C@@H](C)c2ccc(F)cc2)C(C)C)c1OC(=O)C(C)C [Example 212]
pest or weed control at 25 ppm [1]: < 80% | pest or weed control at 25 ppm [2]: < 80%

COc1ccc([C@H](C)[C@H](C)OC(=O)CNC(=O)c2nccc(OC)c2OC(=O)C(C)C)c(C)c1 [Example 224]
PHAKPA 1DP (1 Day Protectant) disease control (1 day protectant): B (≤80) | PHAKPA 3DC (3 Day Curative) disease control (3 day curative): D (≤0)

COc1ccnc(C(=O)N[C@H](C(=O)O[C@@H](C)[C@H](C)c2ccccc2C)C(C)C)c1OC(C)=O [Example 186]
pest or weed control at 25 ppm [1]: < 80% | pest or weed control at 25 ppm [2]: < 80%

COc1ccnc(C(=O)N[C@H](C(=O)O[C@@H](C)[C@H](C)c2ccccc2C)C(C)C)c1OC(=O)C(C)C [Example 211]
pest or weed control at 25 ppm [1]: < 80% | pest or weed control at 25 ppm [2]: < 0%

CCC(=O)Oc1c(OC)ccnc1C(=O)N[C@@H](C)C(=O)O[C@@H](C)[C@@H](C)c1ccccc1C [Example 278]
pest or weed control at 25 ppm [1]: > 80% | pest or weed control at 25 ppm [2]: > 80%

COc1ccnc(C(=O)N[C@H](C(=O)O[C@@H](C)[C@@H](C)c2ccc(F)cc2C)C(C)C)c1OC(C)=O [Example 184]
pest or weed control at 25 ppm [1]: > 80% | pest or weed control at 25 ppm [2]: > 80%

COc1ccnc(C(=O)N[C@H](C(=O)O[C@@H](C)[C@@H](C)c2ccc(F)cc2C)C(C)C)c1OC(=O)C(C)C [Example 205]
PHAKPA 3DC (3 Day Curative) disease control (3 day curative): B (≤80) | pest or weed control at 25 ppm [1]: > 80%

COc1ccc([C@H](C)[C@H](C)OC(=O)CNC(=O)c2nccc(OC)c2OC(=O)C(C)C)c(C)c1 [Example 200]
PHAKPA 3DC (3 Day Curative) disease control (3 day curative): B (≤80) | pest or weed control at 25 ppm [1]: < 80%

COc1ccc([C@H](C)[C@H](C)OC(=O)[C@H](C)NC(=O)c2nccc(OC)c2OC(=O)C(C)C)c(C)c1 [Example 204]
PHAKPA 1DP (1 Day Protectant) disease control (1 day protectant): A (>80) | PHAKPA 3DC (3 Day Curative) disease control (3 day curative): A (>80)

COc1ccnc(C(=O)N[C@H](C(=O)O[C@H](C)[C@H](C)c2ccc(F)cc2)C(C)C)c1OC(C)=O [Example 192]
pest or weed control at 25 ppm [1]: < 80% | pest or weed control at 25 ppm [2]: < 0%

COc1ccnc(C(=O)NCC(=O)O[C@@H](C)[C@@H](C)c2ccc(F)cc2C)c1OC(=O)C(C)C [Example 221]
PHAKPA 1DP (1 Day Protectant) disease control (1 day protectant): D (≤0) | PHAKPA 3DC (3 Day Curative) disease control (3 day curative): D (≤0)

COc1ccc([C@@H](C)[C@@H](C)OC(=O)[C@@H](NC(=O)c2nccc(OC)c2OC(C)=O)C(C)C)c(C)c1 [Example 193]
pest or weed control at 25 ppm [1]: < 80% | pest or weed control at 25 ppm [2]: < 0%

CCCCC(=O)Oc1c(OC)ccnc1C(=O)N[C@@H](C)C(=O)O[C@@H](C)[C@@H](C)c1ccccc1C [Example 280]
pest or weed control at 25 ppm [1]: > 80% | pest or weed control at 25 ppm [2]: > 80%

COc1ccnc(C(=O)N[C@H](C(=O)O[C@H](C)[C@@H](C)c2ccccc2C)C(C)C)c1OC(C)=O [Example 191]
pest or weed control at 25 ppm [1]: < 80% | pest or weed control at 25 ppm [2]: < 80%

COc1ccnc(C(=O)N[C@H](C)C(=O)O[C@H](C)[C@H](C)c2ccc(F)cc2C)c1OC(=O)C(C)C [Example 219]
pest or weed control at 25 ppm [1]: < 0% | pest or weed control at 25 ppm [2]: < 0%

COc1ccc([C@@H](C)[C@@H](C)OC(=O)[C@H](C)NC(=O)c2nccc(OC)c2OC(C)=O)c(C)c1 [Example 220]
PHAKPA 1DP (1 Day Protectant) disease control (1 day protectant): B (≤80) | PHAKPA 3DC (3 Day Curative) disease control (3 day curative): B (≤80)
